Measured values from patent US8871435B2, “Methods and compositions for identifying agents that inhibit an NS4B-mediated neoplastic cellular phenotype of HCV infected cells” (The Board of Trustees of the Leland Stanford Junior …, priority 2007, dated 2014).

Biological target: NS4B-GFP (Hepatitis C virus genotype 1b, UniProt Q9WMX2)
Format: binding, hepatitis C virus (HCV)

Sequence of NS4B-GFP (Q9WMX2 1712-1972): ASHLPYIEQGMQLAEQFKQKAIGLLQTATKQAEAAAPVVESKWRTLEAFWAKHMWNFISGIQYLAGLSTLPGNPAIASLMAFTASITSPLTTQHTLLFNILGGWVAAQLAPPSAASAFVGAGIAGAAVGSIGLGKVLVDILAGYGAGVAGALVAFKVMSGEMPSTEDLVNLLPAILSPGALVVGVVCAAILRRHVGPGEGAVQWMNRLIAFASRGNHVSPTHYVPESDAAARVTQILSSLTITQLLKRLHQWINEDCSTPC

Row | Compound | labeling (binding) of NS4B-GFP by 32P-labeled photoactivatable nucleotide analog | binding of labeled GTP in the presence of cold competitor nucleotide
1 | [N-]=[N+]=Nc1ccc(NP(=O)(O)OP(=O)(O)OP(=O)(O)OC[C@H]2O[C@@H](n3cnc4c(=O)[nH]c(N)nc43)[C@H](O)[C@@H]2O)cc1 [GTP, GTP-γ-4-azidoanilide] | specifically labeled | –
2 | Nc1nc2c(ncn2[C@@H]2O[C@H](COP(=O)(O)OP(=O)(O)OP(O)(O)=S)[C@@H](O)[C@H]2O)c(=O)[nH]1 [GTPγS] | – | progressively decreased
3 | [N-]=[N+]=Nc1ccc(NP(=O)(O)OP(=O)(O)OP(=O)(O)OC[C@H]2O[C@@H](n3cnc4c(N)ncnc43)[C@H](O)[C@@H]2O)cc1 [ATP, ATP-γ-4-azidoanilide] | significantly less efficient than GTP binding | –
